Assay results: patent US9944646B2, “Bicyclic azaheterocyclobenzylamines as PI3K inhibitors” (Incyte Corporation, priority 2012, dated 2018)

The compounds below were run against PI3Kδ (Homo sapiens (Human), UniProt O00329) (assay: PI3K Enzyme Assay (Example A2), [γ-33P]ATP filter plate).
Sequence of PI3Kδ (O00329 whole entry): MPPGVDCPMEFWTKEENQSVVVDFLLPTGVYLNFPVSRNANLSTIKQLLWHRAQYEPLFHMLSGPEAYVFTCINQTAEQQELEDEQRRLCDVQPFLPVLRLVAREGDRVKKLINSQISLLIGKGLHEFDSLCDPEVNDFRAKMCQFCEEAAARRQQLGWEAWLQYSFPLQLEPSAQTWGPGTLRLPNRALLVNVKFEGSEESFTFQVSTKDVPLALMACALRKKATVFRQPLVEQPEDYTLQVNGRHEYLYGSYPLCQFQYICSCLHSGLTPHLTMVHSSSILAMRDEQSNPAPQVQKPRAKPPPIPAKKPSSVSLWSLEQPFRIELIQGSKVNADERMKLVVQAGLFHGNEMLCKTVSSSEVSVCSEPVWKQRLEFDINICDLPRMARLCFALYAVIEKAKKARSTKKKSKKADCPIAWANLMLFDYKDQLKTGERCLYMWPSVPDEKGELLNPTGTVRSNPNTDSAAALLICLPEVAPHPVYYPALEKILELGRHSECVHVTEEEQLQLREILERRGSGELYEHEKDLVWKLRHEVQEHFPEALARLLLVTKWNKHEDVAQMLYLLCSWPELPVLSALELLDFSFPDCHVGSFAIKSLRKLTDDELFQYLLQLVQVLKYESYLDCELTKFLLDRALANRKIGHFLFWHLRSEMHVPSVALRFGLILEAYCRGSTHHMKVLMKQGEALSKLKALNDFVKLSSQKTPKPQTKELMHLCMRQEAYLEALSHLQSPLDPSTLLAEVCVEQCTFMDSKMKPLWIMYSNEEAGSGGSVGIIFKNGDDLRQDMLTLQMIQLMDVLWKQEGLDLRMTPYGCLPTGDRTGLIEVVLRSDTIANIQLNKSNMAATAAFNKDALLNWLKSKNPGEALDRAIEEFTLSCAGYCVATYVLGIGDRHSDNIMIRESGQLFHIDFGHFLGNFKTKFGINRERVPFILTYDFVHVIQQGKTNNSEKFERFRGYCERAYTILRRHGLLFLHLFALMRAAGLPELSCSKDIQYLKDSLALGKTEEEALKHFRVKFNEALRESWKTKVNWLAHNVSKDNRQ
Sequence of PI3Kδ (P27986 whole entry partner): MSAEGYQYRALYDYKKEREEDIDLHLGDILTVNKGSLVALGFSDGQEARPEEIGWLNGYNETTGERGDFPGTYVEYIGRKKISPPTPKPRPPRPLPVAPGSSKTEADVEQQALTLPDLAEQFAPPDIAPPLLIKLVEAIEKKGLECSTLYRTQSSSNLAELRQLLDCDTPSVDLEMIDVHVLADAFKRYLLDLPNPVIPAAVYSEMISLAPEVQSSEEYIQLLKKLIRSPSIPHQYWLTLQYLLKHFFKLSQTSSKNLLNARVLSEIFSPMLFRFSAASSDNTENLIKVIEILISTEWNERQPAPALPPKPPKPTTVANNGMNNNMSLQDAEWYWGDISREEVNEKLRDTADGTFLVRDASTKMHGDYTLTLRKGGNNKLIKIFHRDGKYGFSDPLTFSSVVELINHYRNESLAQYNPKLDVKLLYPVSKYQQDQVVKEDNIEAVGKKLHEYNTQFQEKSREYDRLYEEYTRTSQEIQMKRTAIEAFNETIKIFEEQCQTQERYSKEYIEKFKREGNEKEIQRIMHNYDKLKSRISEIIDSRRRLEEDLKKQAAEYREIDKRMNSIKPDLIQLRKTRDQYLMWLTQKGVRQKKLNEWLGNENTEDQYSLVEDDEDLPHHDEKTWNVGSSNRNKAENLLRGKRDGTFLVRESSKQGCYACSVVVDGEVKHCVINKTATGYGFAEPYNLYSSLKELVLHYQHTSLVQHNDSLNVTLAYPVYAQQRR
Type: biochemical
Method: Example A2: PI3K Enzyme Assay
Lipid kinase substrate, phosphoinositol-4,5-bisphosphate (PIP2), are purchased from Echelon Biosciences (Salt Lake City, Utah). PI3K isoforms α, β, δ and γ are purchased from Millipore (Bedford, Mass.). ATP, MgCl2, DTT, EDTA, MOPS and CHAPS are purchased from Sigma-Aldrich (St. Louis, Mo.).
The kinase reaction are conducted in clear-bottom 96-well plate from Thermo Fisher Scientific in a final volume of 24 μL. Inhibitors are first diluted serially in DMSO and added to the plate wells before the addition of other reaction components. The final concentration of DMSO in the assay is 0.5%. The PI3K assays are carried out at room temperature in 20 mM MOPS, pH 6.7, 10 mM MgCl2, 5 mM DTT and CHAPS 0.03%. The reaction mixture is prepared containing 50 µM PIP2, kinase and varying concentration of inhibitors. Reactions are initiated by the addition of ATP containing 2.2 μCi [γ-^33P]ATP to a final concentration of 1000 μM. The final concentration of PI3K isoforms α, β, δ and γ in the assay were 1.3, 9.4, 2.9 and 10.8 nM, respectively. Reactions are incubated for 180 minutes and terminated by the addition of 100 μL of 1 M potassium phosphate pH 8.0, 30 mM EDTA quench buffer. A 100 μL aliquot of the reaction solution are then transferred to 96-well Millipore MultiScreen IP […] PVDF filter plate (The filter plate is prewetted with 200 μL 100% ethanol, distilled water, and 1 M potassium phosphate pH 8.0, respectively). The filter plate is aspirated on a Millipore Manifold under vacuum and washed with 18×200 μL wash buffer containing 1 M potassium phosphate pH 8.0 and 1 mM ATP. After drying by aspiration and blotting, the plate is air dried in an incubator at 37° C. overnight. Packard TopCount adapter (Millipore) is then attached to the plate followed with addition of 120 μL Microscint 20 scintillation cocktail (Perkin Elmer) in each well. After the plate sealing, the radioactivity of the product is determined by scintillation counting on Topcount (Perkin-Elmer). IC50 determination is performed by fitting the curve of percent control activity versus the log of the inhibitor concentration using the GraphPad Prism 3.0 software.
`Cc1nn(C(C)c2cc(Cl)c(F)c3c2OC[C@H](C)N(S(C)(=O)=O)C3)c2ncnc(N)c12` (single isomer, unassigned) [Example 36] gave an IC50 of 500 to 1000 nM. With `Cc1nn(C(C)c2cc(Cl)c(F)c3c2O[C@@H](C)CN(C2CC(C(N)=O)C2)C3)c2ncnc(N)c12` (stereo partly drawn) [Example 43] the IC50 was ≤ 100 nM. In the case of `CCC(=O)N1CC(N2Cc3c(F)c(Cl)cc(C(C)n4nc(C)c5c(N)ncnc54)c3OC(C)C2)C1` (stereo not drawn) [Example 76, 1-{1-[7-chloro-6-fluoro-2-methyl-4-(1-propionylazetidin-3-yl)-2,3,4,5-tetrahydro-1,4-benzoxazepin-9-yl]ethyl}-3-methyl-1H-pyrazolo[3,4-d]pyrimidin-4-amine], the IC50 is reported as ≤ 100 nM. `Cc1nn(C(C)c2cc(Cl)c(F)c3c2OC(C)CN(C[C@@H](C)O)C3)c2ncnc(N)c12` (single isomer, unassigned) [Example 77] was tested, and the IC50 was ≤ 100 nM. `Cc1nn(C(C)c2cc(Cl)c(F)c3c2OC(C)CN(S(C)(=O)=O)C3)c2ncnc(N)c12` (single isomer, unassigned) [Example 39, 1-{1-[7-Chloro-6-fluoro-2-methyl-4-(methylsulfonyl)-2,3,4,5-tetrahydro-1,4-benzoxazepin-9-yl]ethyl}-3-methyl-1H-pyrazolo[3,4-d]pyrimidin-4-amine] was tested, and the IC50 was > 800 nM. `Cc1nn(C(C)c2cc(Cl)c(F)c3c2O[C@@H](C)CN(C2CC(C(N)=O)C2)C3)c2ncnc(N)c12` (single isomer, unassigned) [Example 44] was tested, and the IC50 was ≤ 100 nM. `CC(=O)N1CC(N2Cc3c(F)c(Cl)cc(C(C)n4nc(C)c5c(N)ncnc54)c3OC(C)C2)C1` (single isomer, unassigned) [Example 31, 1-{1-[4-(1-Acetylazetidin-3-yl)-7-chloro-6-fluoro-2-methyl-2,3,4,5-tetrahydro-1,4-benzoxazepin-9-yl]ethyl}-3-methyl-1H-pyrazolo[3,4-d]pyrimidin-4-amine] was tested, and the IC50 was > 800 nM. In the case of `Cc1nn(C(C)c2cc(Cl)c(C#N)c3c2OC(C)CN(C2CN(CC(N)=O)C2)C3)c2ncnc(N)c12` (single isomer, unassigned) [Example 51, 2-{3-[9-[1-(4-Amino-3-methyl-1H-pyrazolo[3,4-d]pyrimidin-1-yl)ethyl]-7-chloro-6-cyano-2-methyl-2,3-dihydro-1,4-benzoxazepin-4(5H)-yl]azetidin-1-yl}acetamide], the IC50 is reported as ≤ 100 nM. `Cc1nn(C(C)c2cc(Cl)c(C#N)c3c2OC(C)CN(CC(C)(C)O)C3)c2ncnc(N)c12` (single isomer, unassigned) [Example 66, 9-[1-(4-Amino-3-methyl-1H-pyrazolo[3,4-d]pyrimidin-1-yl)ethyl]-7-chloro-4-(2-hydroxy-2-methylpropyl)-2-methyl-2,3,4,5-tetrahydro-1,4-benzoxazepine-6-carbonitrile] was tested, and the IC50 was ≤ 100 nM. In the case of `CCOC(=O)N1CC(N2Cc3c(C#N)c(Cl)cc(C(C)n4nc(C)c5c(N)ncnc54)c3OC(C)C2)C1` (single isomer, unassigned) [Example 100, ethyl 3-[9-[1-(4-amino-3-methyl-1H-pyrazolo[3,4-d]pyrimidin-1-yl)ethyl]-7-chloro-6-cyano-2-methyl-2,3-dihydro-1,4-benzoxazepin-4(5H)-yl]azetidine-1-carboxylate], the IC50 is reported as ≤ 100 nM. In the case of `Cc1nn(C(C)c2cc(Cl)c(C#N)c3c2OC(C)CN(C2CN(CC(C)(C)O)C2)C3)c2ncnc(N)c12` (single isomer, unassigned) [Example 55, 9-[1-(4-Amino-3-methyl-1H-pyrazolo[3,4-d]pyrimidin-1-yl)ethyl]-7-chloro-4-[1-(2-hydroxy-2-methylpropyl)azetidin-3-yl]-2-methyl-2,3,4,5-tetrahydro-1,4-benzoxazepine-6-carbonitrile], the IC50 is reported as ≤ 100 nM. For `CNC(=O)C1CC(N2Cc3c(C#N)c(Cl)cc(C(C)n4nc(C)c5c(N)ncnc54)c3OC(C)C2)C1` (single isomer, unassigned) [Example 115, 3-[9-[1-(4-amino-3-methyl-1H-pyrazolo[3,4-d]pyrimidin-1-yl)ethyl]-7-chloro-6-cyano-2-methyl-2,3-dihydro-1,4-benzoxazepin-4(5H)-yl]-N-methylcyclobutanecarboxamide], the IC50 was ≤ 100 nM. In the case of `Cc1nn(C(C)c2cc(Cl)c(C#N)c3c2OC(C)CN(C2CN(CC(N)=O)C2)C3)c2ncnc(N)c12` (single isomer, unassigned) [Example 53, 2-{3-[9-[1-(4-Amino-3-methyl-1H-pyrazolo[3,4-d]pyrimidin-1-yl)ethyl]-7-chloro-6-cyano-2-methyl-2,3-dihydro-1,4-benzoxazepin-4(5H)-yl]azetidin-1-yl}acetamide], the IC50 is reported as ≤ 100 nM. With `CCC1CN(CCO)Cc2c(C#N)c(Cl)cc(C(C)n3nc(C)c4c(N)ncnc43)c2O1` (single isomer, unassigned) [Example 70, 9-[1-(4-Amino-3-methyl-1H-pyrazolo[3,4-d]pyrimidin-1-yl)ethyl]-7-chloro-2-ethyl-4-(2-hydroxyethyl)-2,3,4,5-tetrahydro-1,4-benzoxazepine-6-carbonitrile] the IC50 was ≤ 100 nM. In the case of `CCC1CN(CCO)Cc2c(C#N)c(Cl)cc(C(C)n3nc(C)c4c(N)ncnc43)c2O1` (single isomer, unassigned) [Example 69, 9-[1-(4-Amino-3-methyl-1H-pyrazolo[3,4-d]pyrimidin-1-yl)ethyl]-7-chloro-2-ethyl-4-(2-hydroxyethyl)-2,3,4,5-tetrahydro-1,4-benzoxazepine-6-carbonitrile], the IC50 is reported as ≤ 100 nM. In the case of `Cc1nn(C(C)c2cc(Cl)c(F)c3c2OC(C)CN(C[C@@H](C)O)C3)c2ncnc(N)c12` (single isomer, unassigned) [Example 78], the IC50 is reported as ≤ 100 nM. With `Cc1nn(C(C)c2cc(Cl)c(F)c3c2OC(C)CN(C2CN(C(N)=O)C2)C3)c2ncnc(N)c12` (single isomer, unassigned) [Example 84, 3-[9-[1-(4-amino-3-methyl-1H-pyrazolo[3,4-d]pyrimidin-1-yl)ethyl]-7-chloro-6-fluoro-2-methyl-2,3-dihydro-1,4-benzoxazepin-4(5H)-yl]azetidine-1-carboxamide] the IC50 was ≤ 100 nM. In the case of `CCC(=O)N1CC(N2CCOc3c(C(C)n4nc(C)c5c(N)ncnc54)cc(Cl)c(C#N)c3C2)C1` (stereo not drawn) [Example 89, 9-[1-(4-amino-3-methyl-1H-pyrazolo[3,4-d]pyrimidin-1-yl)ethyl]-7-chloro-4-(1-propionylazetidin-3-yl)-2,3,4,5-tetrahydro-1,4-benzoxazepine-6-carbonitrile], the IC50 is reported as ≤ 100 nM. For `Cc1nn(C(C)c2cc(Cl)c(F)c3c2OC(C)CN(C2CN(S(N)(=O)=O)C2)C3)c2ncnc(N)c12` (single isomer, unassigned) [Example 81, 3-[9-[1-(4-amino-3-methyl-1H-pyrazolo[3,4-d]pyrimidin-1-yl)ethyl]-7-chloro-6-fluoro-2-methyl-2,3-dihydro-1,4-benzoxazepin-4(5H)-yl]azetidine-1-sulfonamide], the IC50 was ≤ 100 nM. With `Cc1nn(C(C)c2cc(Cl)c(F)c3c2O[C@@H](C)CN(C2CN(CC(N)=O)C2)C3)c2ncnc(N)c12` (single isomer, unassigned) [Example 88] the IC50 was ≤ 100 nM. For `CC(=O)N1CC(N2CCOc3c(C(C)n4nc(C)c5c(N)ncnc54)cc(Cl)c(F)c3C2)C1` (stereo not drawn) [Example 34, 1-{1-[4-(1-Acetylazetidin-3-yl)-7-chloro-6-fluoro-2,3,4,5-tetrahydro-1,4-benzoxazepin-9-yl]ethyl}-3-methyl-1H-pyrazolo[3,4-d]pyrimidin-4-amine], the IC50 was ≤ 100 nM. `Cc1nn(C(C)c2cc(Cl)c(C#N)c3c2OC(C)CN(C2CN(CCO)C2)C3)c2ncnc(N)c12` (single isomer, unassigned) [Example 103, 9-[1-(4-amino-3-methyl-1H-pyrazolo[3,4-d]pyrimidin-1-yl)ethyl]-7-chloro-4-[1-(2-hydroxyethyl)azetidin-3-yl]-2-methyl-2,3,4,5-tetrahydro-1,4-benzoxazepine-6-carbonitrile] was tested, and the IC50 was ≤ 100 nM. In the case of `CNC(=O)C1CC(N2Cc3c(C#N)c(Cl)cc(C(C)n4nc(C)c5c(N)ncnc54)c3OC(C)C2)C1` (single isomer, unassigned) [Example 113, 3-[9-[1-(4-amino-3-methyl-1H-pyrazolo[3,4-d]pyrimidin-1-yl)ethyl]-7-chloro-6-cyano-2-methyl-2,3-dihydro-1,4-benzoxazepin-4(5H)-yl]-N-methylcyclobutanecarboxamide], the IC50 is reported as ≤ 100 nM. With `CCOC(=O)N1CC(N2Cc3c(C#N)c(Cl)cc(C(C)n4nc(C)c5c(N)ncnc54)c3OC(C)C2)C1` (single isomer, unassigned) [Example 99, ethyl 3-[9-[1-(4-amino-3-methyl-1H-pyrazolo[3,4-d]pyrimidin-1-yl)ethyl]-7-chloro-6-cyano-2-methyl-2,3-dihydro-1,4-benzoxazepin-4(5H)-yl]azetidine-1-carboxylate] the IC50 was ≤ 100 nM.
